Reference: ChEMBL document CHEMBL1145206, “Design, synthesis and structure-activity relationships of novel taxane-based multidrug resistance reversal agents” (2005)

Each compound was assayed on MDA-MB-435 (assay: MDR-reversal activity evaluated against the resistant human breast tumor cell line MDA-435/LCC6-MDR).
Assay type: functional
Design: concentration or dose not given beside the values

SMILES | Reduction [%]
CC(=O)O[C@H]1C(=O)[C@]2(C)[C@@H](OC(=O)Cn3ccc4ccccc43)C[C@H]3OC[C@@]3(OC(C)=O)[C@H]2[C@H](OC(=O)c2ccccc2)[C@]2(O)C[C@H](OC(C)=O)C(C)=C1C2(C)C | 83
CC(=O)O[C@H]1C(=O)[C@]2(C)[C@@H](OC(=O)/C=C/c3ccc(Oc4ccccc4)cc3)C[C@H]3OC[C@@]3(OC(C)=O)[C@H]2[C@H](OC(=O)c2ccccc2)[C@]2(O)C[C@H](OC(C)=O)C(C)=C1C2(C)C | 90
CC(=O)O[C@H]1C(=O)[C@]2(C)[C@@H](OC(=O)/C=C/c3cccc(NC(=O)c4ccccc4)c3)C[C@H]3OC[C@@]3(OC(C)=O)[C@H]2[C@H](OC(=O)c2ccccc2)[C@]2(O)C[C@H](OC(C)=O)C(C)=C1C2(C)C | 83
CC(=O)O[C@H]1C(=O)[C@]2(C)[C@@H](OC(=O)/C=C/c3ccc(C(=O)c4ccc(F)cc4)cc3)C[C@H]3OC[C@@]3(OC(C)=O)[C@H]2[C@H](OC(=O)c2ccccc2)[C@]2(O)C[C@H](OC(C)=O)C(C)=C1C2(C)C | 92
CC(=O)O[C@H]1C(=O)[C@]2(C)[C@@H](OC(=O)/C=C/c3ccc(Sc4ccccc4)cc3)C[C@H]3OC[C@@]3(OC(C)=O)[C@H]2[C@H](OC(=O)c2ccccc2)[C@]23OC(=O)O[C@H]2[C@H](OC(C)=O)C(C)=C1C3(C)C | 63
CC(=O)O[C@H]1C(=O)[C@]2(C)[C@@H](OC(=O)Cc3ccc(C(=O)c4ccccc4)cc3)C[C@H]3OC[C@@]3(OC(C)=O)[C@H]2[C@H](OC(=O)c2ccccc2)[C@]2(O)C[C@H](OC(C)=O)C(C)=C1C2(C)C | 41
CC(=O)O[C@H]1C(=O)[C@]2(C)[C@@H](OC(=O)/C=C/c3ccc(OC(=O)c4cccs4)cc3)C[C@H]3OC[C@@]3(OC(C)=O)[C@H]2[C@H](OC(=O)c2ccccc2)[C@]23OC(=O)O[C@H]2[C@H](OC(C)=O)C(C)=C1C3(C)C | 55
CC(=O)O[C@H]1C(=O)[C@]2(C)[C@@H](OC(=O)CCc3ccc(C(O)c4ccccc4)cc3)C[C@H]3OC[C@@]3(OC(C)=O)[C@H]2[C@H](OC(=O)c2ccccc2)[C@]2(O)C[C@H](OC(C)=O)C(C)=C1C2(C)C (some centres undefined) | 48
CC(=O)O[C@H]1C(=O)[C@]2(C)[C@@H](OC(=O)CC3c4ccccc4-c4ccccc43)C[C@H]3OC[C@@]3(OC(C)=O)[C@H]2[C@H](OC(=O)c2ccccc2)[C@]2(O)C[C@H](OC(C)=O)C(C)=C1C2(C)C | 67
CC(=O)O[C@H]1C(=O)[C@]2(C)[C@@H](OC(=O)CCc3ccc4c(c3)C(=O)c3ccccc3C4=O)C[C@H]3OC[C@@]3(OC(C)=O)[C@H]2[C@H](OC(=O)c2ccccc2)[C@]2(O)C[C@H](OC(C)=O)C(C)=C1C2(C)C | 29
CC(=O)O[C@H]1C(=O)[C@]2(C)[C@@H](OC(=O)/C=C/c3ccc(O)cc3)C[C@H]3OC[C@@]3(OC(C)=O)[C@H]2[C@H](OC(=O)c2ccccc2)[C@]2(O)C[C@H](OC(C)=O)C(C)=C1C2(C)C | 34
CC(=O)O[C@H]1C(=O)[C@]2(C)[C@@H](OC(=O)/C=C/c3cccc(NC(=O)c4ccccc4)c3)C[C@H]3OC[C@@]3(OC(C)=O)[C@H]2[C@H](OC(=O)c2ccccc2)[C@]23OC(=O)O[C@H]2[C@H](OC(C)=O)C(C)=C1C3(C)C | 91
CC(=O)O[C@H]1C(=O)[C@]2(C)[C@@H](OC(=O)/C=C/c3ccc(OC(=O)c4ccc[nH]4)cc3)C[C@H]3OC[C@@]3(OC(C)=O)[C@H]2[C@H](OC(=O)c2ccccc2)[C@]23OC(=O)O[C@H]2[C@H](OC(C)=O)C(C)=C1C3(C)C | 63
CC(=O)O[C@H]1C(=O)[C@]2(C)[C@@H](OC(=O)/C=C/c3ccc(C(=O)Oc4ccccc4)cc3)C[C@H]3OC[C@@]3(OC(C)=O)[C@H]2[C@H](OC(=O)c2ccccc2)[C@]23OC(=O)O[C@H]2[C@H](OC(C)=O)C(C)=C1C3(C)C | 84
CC(=O)O[C@H]1C(=O)[C@]2(C)[C@@H](OC(=O)Cc3ccc(C(=O)c4ccccc4)cc3)C[C@H]3OC[C@@]3(OC(C)=O)[C@H]2[C@H](OC(=O)c2ccccc2)[C@]23OC(=O)O[C@H]2[C@H](OC(C)=O)C(C)=C1C3(C)C | 44
CC(=O)O[C@H]1C(=O)[C@]2(C)[C@@H](OC(=O)/C=C/c3ccc(OC(=O)c4ccc(Br)cc4)cc3)C[C@H]3OC[C@@]3(OC(C)=O)[C@H]2[C@H](OC(=O)c2ccccc2)[C@]23OC(=O)O[C@H]2[C@H](OC(C)=O)C(C)=C1C3(C)C | 34
CC(=O)O[C@H]1C(=O)[C@]2(C)[C@@H](OC(=O)CCCCc3ccc(C(=O)c4ccccc4)cc3)C[C@H]3OC[C@@]3(OC(C)=O)[C@H]2[C@H](OC(=O)c2ccccc2)[C@]23OC(=O)O[C@H]2[C@H](OC(C)=O)C(C)=C1C3(C)C | 0
C=C(c1ccccc1)c1cccc(/C=C/C(=O)O[C@H]2C[C@H]3OC[C@@]3(OC(C)=O)[C@H]3[C@H](OCc4ccccc4)[C@]4(O)C[C@H](OC(C)=O)C(C)=C([C@@H](OC(C)=O)C(=O)[C@]23C)C4(C)C)c1 | 52
CC(=O)O[C@H]1C(=O)[C@]2(C)[C@@H](OC(=O)/C=C/c3ccc4ccccc4c3)C[C@H]3OC[C@@]3(OC(C)=O)[C@H]2[C@H](OC(=O)c2ccccc2)[C@]23OC(=O)O[C@H]2[C@H](OC(C)=O)C(C)=C1C3(C)C | 60
CC(=O)O[C@H]1C(=O)[C@]2(C)[C@@H](OC(=O)COc3ccc4ccccc4c3)C[C@H]3OC[C@@]3(OC(C)=O)[C@H]2[C@H](OC(=O)c2ccccc2)[C@]2(O)C[C@H](OC(C)=O)C(C)=C1C2(C)C | 86

SMILES | Reduction [%]
CC(=O)O[C@H]1C(=O)[C@]2(C)[C@@H](OC(=O)Cc3ccc(-c4ccccc4)cc3)C[C@H]3OC[C@@]3(OC(C)=O)[C@H]2[C@H](OC(=O)c2ccccc2)[C@]2(O)C[C@H](OC(C)=O)C(C)=C1C2(C)C | 57
CC(=O)O[C@H]1C(=O)[C@]2(C)[C@@H](OC(=O)/C=C/c3ccc(Sc4ccccc4)cc3)C[C@H]3OC[C@@]3(OC(C)=O)[C@H]2[C@H](OC(=O)c2ccccc2)[C@]2(O)C[C@H](OC(C)=O)C(C)=C1C2(C)C | 64
CC(=O)O[C@H]1C(=O)[C@]2(C)[C@@H](OC(=O)/C=C/c3cccc(C(=O)c4ccc(C)cc4)c3)C[C@H]3OC[C@@]3(OC(C)=O)[C@H]2[C@H](OCc2ccccc2)[C@]2(O)C[C@H](OC(C)=O)C(C)=C1C2(C)C | 91
CC(=O)O[C@H]1C(=O)[C@]2(C)[C@@H](OC(=O)/C=C/c3ccc(C(=O)Oc4ccccc4)cc3)C[C@H]3OC[C@@]3(OC(C)=O)[C@H]2[C@H](OC(=O)c2ccccc2)[C@]2(O)C[C@H](OC(C)=O)C(C)=C1C2(C)C | 27
CC(=O)O[C@H]1C(=O)[C@]2(C)[C@@H](OC(=O)/C=C/c3ccc(Oc4ccccc4)cc3)C[C@H]3OC[C@@]3(OC(C)=O)[C@H]2[C@H](OC(=O)c2ccccc2)[C@]23OC(=O)O[C@H]2[C@H](OC(C)=O)C(C)=C1C3(C)C | 90
CC(=O)O[C@H]1C(=O)[C@]2(C)[C@@H](OC(=O)c3ccc(C(=O)c4ccccc4)cc3)C[C@H]3OC[C@@]3(OC(C)=O)[C@H]2[C@H](OC(=O)c2ccccc2)[C@]23OC(=O)O[C@H]2[C@H](OC(C)=O)C(C)=C1C3(C)C | 92
CC(=O)O[C@H]1C(=O)[C@]2(C)[C@@H](OC(=O)c3ccnc4ccccc34)C[C@H]3OC[C@@]3(OC(C)=O)[C@H]2[C@H](OC(=O)c2ccccc2)[C@]2(O)C[C@H](OC(C)=O)C(C)=C1C2(C)C | 36
CC(=O)O[C@H]1C(=O)[C@]2(C)[C@@H](OC(=O)/C=C/c3cccc(OC(=O)c4ccccc4)c3)C[C@H]3OC[C@@]3(OC(C)=O)[C@H]2[C@H](OC(=O)c2ccccc2)[C@]2(O)C[C@H](OC(C)=O)C(C)=C1C2(C)C | 17
CC(=O)O[C@H]1C(=O)[C@]2(C)[C@@H](OC(=O)CCc3ccc(Cc4ccccc4)cc3)C[C@H]3OC[C@@]3(OC(C)=O)[C@H]2[C@H](OC(=O)c2ccccc2)[C@]2(O)C[C@H](OC(C)=O)C(C)=C1C2(C)C | 16
CC(=O)O[C@H]1C(=O)[C@]2(C)[C@@H](OC(=O)CCc3c(F)c(F)c(F)c(F)c3F)C[C@H]3OC[C@@]3(OC(C)=O)[C@H]2[C@H](OC(=O)c2ccccc2)[C@]2(O)C[C@H](OC(C)=O)C(C)=C1C2(C)C | 59
CC(=O)O[C@H]1C(=O)[C@]2(C)[C@@H](OC(=O)c3ccc(C(=O)c4ccccc4)cc3)C[C@H]3OC[C@@]3(OC(C)=O)[C@H]2[C@H](OC(=O)c2ccccc2)[C@]2(O)C[C@H](OC(C)=O)C(C)=C1C2(C)C | 88
CC(=O)O[C@H]1C(=O)[C@]2(C)[C@@H](OC(=O)COc3cccc4ccccc34)C[C@H]3OC[C@@]3(OC(C)=O)[C@H]2[C@H](OC(=O)c2ccccc2)[C@]2(O)C[C@H](OC(C)=O)C(C)=C1C2(C)C | 60
CC(=O)O[C@H]1C(=O)[C@]2(C)[C@@H](OC(=O)/C=C/c3ccc(OC(=O)c4cccc5ccccc45)cc3)C[C@H]3OC[C@@]3(OC(C)=O)[C@H]2[C@H](OC(=O)c2ccccc2)[C@]2(O)C[C@H](OC(C)=O)C(C)=C1C2(C)C | 89
CC(=O)O[C@H]1C(=O)[C@]2(C)[C@@H](OC(=O)/C=C/c3ccc(OC(=O)c4ccc([N+](=O)[O-])cc4)cc3)C[C@H]3OC[C@@]3(OC(C)=O)[C@H]2[C@H](OC(=O)c2ccccc2)[C@]23OC(=O)O[C@H]2[C@H](OC(C)=O)C(C)=C1C3(C)C | 27
CC(=O)O[C@H]1C(=O)[C@]2(C)[C@@H](OC(=O)/C=C/c3ccc(OC(=O)c4ccc5ccccc5c4)cc3)C[C@H]3OC[C@@]3(OC(C)=O)[C@H]2[C@H](OC(=O)c2ccccc2)[C@]2(O)C[C@H](OC(C)=O)C(C)=C1C2(C)C | 29
CC(=O)O[C@H]1C(=O)[C@]2(C)[C@@H](OC(=O)/C=C/c3ccc(C(=O)c4cc(C(F)(F)F)cc(C(F)(F)F)c4)cc3)C[C@H]3OC[C@@]3(OC(C)=O)[C@H]2[C@H](OC(=O)c2ccccc2)[C@]2(O)C[C@H](OC(C)=O)C(C)=C1C2(C)C | 36
CC(=O)O[C@H]1C(=O)[C@]2(C)[C@@H](OC(=O)/C=C/c3ccc4c(c3)C(=O)c3ccccc3-4)C[C@H]3OC[C@@]3(OC(C)=O)[C@H]2[C@H](OC(=O)c2ccccc2)[C@]2(O)C[C@H](OC(C)=O)C(C)=C1C2(C)C | 91
CC(=O)O[C@H]1C(=O)[C@]2(C)[C@@H](OC(=O)c3cnc4ccccc4c3)C[C@H]3OC[C@@]3(OC(C)=O)[C@H]2[C@H](OC(=O)c2ccccc2)[C@]2(O)C[C@H](OC(C)=O)C(C)=C1C2(C)C | 41
CC(=O)O[C@H]1C(=O)[C@]2(C)[C@@H](OC(=O)/C=C/c3ccc(C(=O)c4ccccc4)cc3)C[C@H]3OC[C@@]3(OC(C)=O)[C@H]2[C@H](OC(=O)c2ccccc2)[C@]23OC(=O)O[C@H]2[C@H](OC(C)=O)C(C)=C1C3(C)C | 94
